Reference: patent US7141564B2, “Nitrogen-containing bicyclic heterocycles for use as antibacterials” (priority 2001, dated 2006)
Structures can show the parent of a compound that is named as a salt.

System: not listed separately
Test: MIC of test compounds against various organisms
Format: cell-based
Conditions: not given

| Compound | MIC |
| --- | --- |
| COc1ccc2nccc(NC(=O)C3=CCC(N(CC(=O)O)Cc4ccc5c(c4)NC(=O)CS5)CC3)c2n1 (racemic) [Example 156, (R/S)-4-[Carboxymethyl-(3-oxo-3,4-dihydro-2H-benzo[1,4]thiazin-6-ylmethyl)-amino]-cyclohex-1-enecarboxylic Acid (6-methoxy-[1,5]naphthyridin-4-yl)-amide Bis(trifluoroacetate) Salt] | ≤ 16 µg/mL |
| COc1ccc2nccc(NC(=O)[C@H]3CC[C@H](NCc4ccc5c(c4)NC(=O)CS5)CC3)c2c1 [Example 28, Trans 4-[(3-Oxo-3,4-dihydro-2-H-benzo[1,4]thiazin-6-ylmethyl)-amino]-cyclohexanecarboxylic acid (6-methoxy-quinolin-4-yl)-amide] | ≤ 4 µg/mL |

Same assay, conditions: versus all these organisms (panel of 10 strains); read-out: MIC

| MIC | Compound |
| --- | --- |
| ≤ 16 µg/mL | COc1ccc2nccc(NC(=O)C3=CCC(NCc4cnc5c(c4)NC(=O)CO5)CC3)c2n1 (racemic) [Example 155, (R/S)-4-[(2-Oxo-2,3-dihydro-1H-pyrido[2,3-b][1,4]oxazin-7-ylmethyl)-amino]-cyclohex-1-enecarboxylic Acid (6-methoxy-[1,5]naphthyridin-4-yl)-amide oxalate] |
| ≤ 4 µg/mL | COc1ccc2nccc(NC(=O)[C@H]3CC[C@H](NCc4cc5c(cc4F)OCC(=O)N5)CC3)c2n1 [Example 9] |
| ≤ 4 µg/mL | COc1ccc2nccc(NC(=O)[C@]3(O)CC[C@@H](NCc4cnc5c(c4)NC(=O)CS5)CC3)c2n1 [Example 303, 1-Hydroxy-t-4-[(2-oxo-2,3-dihydro-1H-pyrido[2,3-b][1,4]thiazin-7-ylmethyl)-amino]-r-cyclohexanecarboxylic Acid (6-methoxy-[1,5]naphthyridin-4-yl)-amide Dihydrochloride] |
| ≤ 4 µg/mL | COc1ccc2nccc(NC(=O)[C@H]3CC[C@H](NCc4ccc5nsnc5c4)CC3)c2c1 [Example 12, Trans-4-[(Benzo[1,2,5]thiadiazol-5-ylmethyl)-amino]-cyclohexanecarboxylic acid (6-methoxy-quinolin-4-yl)-amide fumarate salt] |
| ≤ 4 µg/mL | COc1ccc2nccc(NC(=O)[C@H]3CC[C@H](NCc4ccc5c(c4)NC(=O)CO5)CC3)c2n1 [Example 8, Trans-4-[(3-Oxo-3,4-dihydro-2H-benzo[1,4]oxazin-6-ylmethyl)-amino]-cyclohexanecarboxylic acid (6-methoxy-[1,5]naphthyridin-4-yl)-amide fumarate salt] |
| ≤ 64 µg/mL | COc1ccc2nccc(NC(=O)[C@H]3CC[C@H](NCc4ccc5c(n4)OCCO5)CC3)c2n1 [Example 18, Trans-4-[(2,3-Dihydro-[1,4]dioxino[2,3-b]pyridin-6-ylmethyl)-amino]-cyclohexanecarboxylic acid (6-methoxy-[1,5]naphthyridin-4-yl)-amide oxalate salt] |
| ≤ 4 µg/mL | COc1cc(F)c2nccc(NC(=O)[C@H]3CC[C@H](NCc4ccc5c(c4)NC(=O)CS5)CC3)c2c1 [Example 30, Trans-4-[(3-Oxo-3,4-dihydro-2-H-benzo[1,4]thiazin-6-ylmethyl)amino]-cyclohexanecarboxylic acid (8-fluoro-6-methoxy-quinolin-4-yl)-amide oxalate] |
| ≤ 4 µg/mL | COc1ccc2nccc(NC(=O)[C@]3(O)CC[C@@H](NCc4cc5c(cn4)SCC(=O)N5)CC3)c2n1 [Example 302, 1-Hydroxy-t-4-[(2-oxo-2,3-dihydro-1H-pyrido[3,4-b][1,4]thiazin-7-ylmethyl)-amino]-r-cyclohexanecarboxylic Acid (6-methoxy-[1,5]naphthyridin-4-yl)-amide Dihydrochloride] |
| ≤ 4 µg/mL | COc1ccc2nccc(NC(=O)[C@H]3CC[C@H](NCc4cnc5snnc5c4)CC3)c2n1 [Example 32, Trans-4-[([1,2,3]Thiadiazolo[5,4-b]pyridin-6-ylmethyl)-amino]-cyclohexanecarboxylic acid (6-methoxy-[1,5]naphthyridin-4-yl)-amide oxalate] |
| ≤ 16 µg/mL | COc1cc(F)c2nccc(NC(=O)[C@H]3CC[C@H](NCc4ccc5c(c4)OCCO5)CC3)c2c1 [Example 10, Trans-4-[(2,3-Dihydro-benzo[1,4]dioxin-6-ylmethyl)-amino]-cyclohexanecarboxylic acid (8-fluoro-6-methoxy-quinolin-4-yl)-amide Fumarate Salt] |
| ≤ 4 µg/mL | COc1ccc2nccc(NC(=O)[C@H]3CC[C@H](NCc4cc5cccnc5[nH]4)CC3)c2n1 [Example 3, Trans-4-[(1H-Pyrrolo[2,3-b]pyridin-2-ylmethyl)-amino]-cyclohexanecarboxylic acid (6-methoxy-[1,5]naphthyridin4-yl)-amide fumarate salt] |
| ≤ 4 µg/mL | COc1ccc2nccc(NC(=O)[C@H]3CC[C@H](NCc4ccc5snnc5c4)CC3)c2n1 [Example 6, Trans-4-[(Benzo[1,2,3]thiadiazol-5-ylmethyl)-amino]-cyclohexanecarboxylic acid (6-methoxy-[1,5]naphthyridin-4-yl)-amide fumarate salt] |
| ≤ 16 µg/mL | COc1ccc2nccc(NC(=O)[C@H]3CC[C@H](NCc4cc(=O)n5ccccc5n4)CC3)c2n1 [Example 26, Trans-4-[(4-Oxo-4 H pyrido[1,2-a]pyrimidin-2-ylmethyl)-amino]-cyclohexanecarboxylic acid (6-methoxy-[1,5]naphthyridin-4-yl)-amide oxalate salt] |
| ≤ 4 µg/mL | COc1ccc2nccc(NC(=O)[C@H]3CC[C@H](NCc4ccc5c(c4)OCCO5)CC3)c2n1 [Example 5, Trans-4-[(2,3-Dihydro-benzo[1,4]dioxin-6-ylmethyl)-amino]-cyclohexanecarboxylic acid (6-methoxy-[1,5]naphthyridin-4-yl)-amide fumarate salt] |
| ≤ 4 µg/mL | COc1cc(F)c2nccc(NC(=O)[C@]3(O)CC[C@@H](NCc4ccc5c(n4)NC(=O)CS5)CC3)c2c1 [Example 390, 1-Hydroxy-t-4-[(3-oxo-3,4-dihydro-2H-pyrido[3,2-b][1,4]thiazin-6-ylmethyl)-amino-r-cyclohexanecarboxylic acid (8-fluoro-6-methoxy-quinolin-4-yl)-amidedihydrochloride] |
| ≤ 4 µg/mL | COc1ccc2nccc(NC(=O)C3=CCC(NCc4cnc5c(c4)NC(=O)CS5)CC3)c2n1 (racemic) [Example 153, (R/S)-4-[(2-Oxo-2,3-dihydro-1H-pyrido[2,3-b][1,4]thiazin-7-ylmethyl)-amino]-cyclohex-1-ene carboxylic acid (6-methoxy-[1,5]naphthyridin-4-yl)-amide oxalate] |
| ≤ 4 µg/mL | COc1ccc2nccc(NC(=O)[C@H]3CC[C@H](NCc4cc5c(cc4[N+](=O)[O-])OCO5)CC3)c2n1.O=C(O)C(=O)O [Example 23, Trans-4-[(6-Nitro-benzo[1,3]dioxol-5-ylmethyl)-amino]-cyclohexanecarboxylic acid (6-methoxy-[1,5]naphthyridin-4-yl)-amide oxalate salt] |

System: S. aureus WCUH29, S. pneumoniae 1629, H. influenzae ATCC 51907, M. catarrhalis Ravisio
Test: MIC of further test compounds against an alternative selection of organisms
Format: cell-based
Conditions: versus all these organisms (alternative panel of 4 strains)
Procedure: The MIC […] of further test compounds against an alternative selection of organisms was determined: S. aureus WCUH29, S. pneumoniae 1629, H. influenzae ATCC 51907, M. catarrhalis Ravisio.

| MIC | Compound |
| --- | --- |
| ≤ 16 µg/mL | CCc1cc2c(nc1CN[C@H]1CC[C@](O)(C(=O)Nc3ccnc4ccc(OC)nc34)CC1)NC(=O)CS2 [Example 311, 1-Hydroxy-t-4-[(7-ethyl-3-oxo-3,4-dihydro-2H-pyrido[3,2-b][1,4]thiazin-6-ylmethyl)-amino]-r-cyclohexanecarboxylic acid (6-methoxy-[1,5]naphthyridin-4-yl)-amide dihydrochloride] |
| ≤ 16 µg/mL | COCCOc1ccc2nccc(NC(=O)[C@]3(O)CC[C@@H](NCc4ccc5c(n4)NC(=O)CS5)CC3)c2n1 [Example 313, 1-Hydroxy-t-4-[(3-oxo-3,4-dihydro-2H-pyrido[3,2-b][1,4]thiazin-6-ylmethyl)-amino]-r-cyclohexanecarboxylic acid [6-(2-methoxy-ethoxy)-[1,5]naphthyridin-4-yl]-amide dihydrochloride] |
